Test results taken from US5030760A, “Tetrahydrophthalimides, and their production and use” (Sumitomo Chemical Company, Ltd., priority 1981, dated 1991).

What was measured:
[1] = system: cocklebur; assay: Test Example 2, field foliar treatment, herbicidal activity; format: in vivo, Xanthium pennsylvanicum; details: 3 weeks
Procedure: (§1) The application of the tetrahydrophthalimides (I) as herbicides will be illustratively shown in the following Examples wherein the phytotoxicity to cultivated plants and the herbicidal activity on weeds were evaluated as follows: the aerial parts of the test plants were cut off and weighed (fresh weight); the percentage of the fresh weight of the treated plant to that of the untreated plant was calculated with the latter fresh weight taken as 100; and the crop damage and the herbicidal activity were evaluated by the standard given in the table below. The rating values of phytotoxicity, 0 and 1, and those of herbicidal effect, 5 and 4, are generally regarded as satisfactory to protect cultivated plants and control weeds, respectively. The rating values in the paddy field test alone were calculated from the dry weight of the test plants.
(§2) Seeds of corn and broad-leaved weeds such as cocklebur, common purslane and tall morningglory were sown in the field as previously laid up in ridges, each ridge having an upper width of 1 m. At the time when the corn grew up to the 6-leaf stage and the broad-leaved weeds up to 2 to 5-leaf stages, a designed amount of the test compound formulated into an emulsifiable concentrate according to Preparation Example 2 and dispersed in water was sprayed to the foliage of the test plants with three replications over the top by means of a small hand sprayer at a spray volume of 5 liters per are. After cultivation for 3 weeks, herbicidal activity and phytotoxicity were examined.

[2] = system: common purslane; assay: as above; format: in vivo, Portulaca oleracea; details: 3 weeks
Procedure: as §1, §2

[3] = system: sicklepod; assay: Test Example 3, soil surface spraying, herbicidal activity; format: in vivo, Cassia obtusifolia; details: 20 days
Procedure: as §1
(§3) Plastic trays (35 cm×25 cm×15 cm) were filled with upland field soil, and the seeds of tall morningglory, velvetleaf and sicklepod and the seeds of corn were sown therein. A designed amount of the test compounds formulated into a wettable powder according to Preparation Example 1 was dispersed in water and applied by spraying at a spray volume of 5 liters per are to the whole surface of the soil. After the spraying, the test plants were placed in a greenhouse and grown for 20 days, and herbicidal activity and phytotoxicity were examined.

[4] = system: tall morningglory; assay: Test Example 2, field foliar treatment, herbicidal activity; format: in vivo, Ipomoea purpurea; details: 3 weeks
Procedure: as §1, §2

[5] = system: barnyardgrass; assay: Test Example 6, paddy pot perfusion, herbicidal activity; format: in vivo, Echinochloa crus-galli; details: 3 weeks, dry weight
Procedure: as §1
(§4) Wagner's pots (1/5000 are) were filled with paddy field soil containing the seeds of broad-leaved weeds (e.g. monochoria, false pimpernel, toothcup) and the seeds of barnyardgrass and hardstem bulrush, and water was poured therein until the depth of water became 4 cm. Rice seedlings of the 3.5-leaf stage and the tubers of arrowhead were transplanted therein and grown for 2 days in a greenhouse. A designed amount of the test compound formulated in an emulsifiable concentrate according to Preparation Example 2 was applied to the pots by perfusion. Thereafter, the test plants were grown for an additional 3 weeks in the greenhouse, and herbicidal activity and phytotoxicity were examined. In this treatment, the emulsifiable concentrate was dispersed in water for application at a perfusion volume of 10 liters per are.

[6] = system: corn; assay: Test Example 4, pre-emergence treatment, phytotoxicity to corn; format: in vivo; details: 20 days
How it was run: (§5)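 Seeds sown in upland field soil; compound, formulated as an emulsifiable concentrate and dispersed in water with spreading agent, sprayed pre-emergence onto the soil surface at 5 liters per are. Plants grown 20 days in greenhouse; aerial fresh weight expressed as percent of untreated and converted to a rating score.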

[7] = system: sicklepod; assay: Test Example 5, spraying over the top, herbicidal activity; format: in vivo, Cassia obtusifolia; details: sprayed over the top, 20 days
Procedure: as §1
(§6) Plastic trays (35 cm×25 cm×15 cm) were filled with upland field soil, and the seeds of tall morningglory, velvetleaf, jimsonweed, sicklepod, hemp sesbania, prickly side, Johnsongrass, green foxtail and large crabgrass and the seeds of soybean were sown therein. A designed amount of the test compound formulated into a wettable powder according to Preparation Example 1 and dispersed in water was sprayed over the top by means of a small hand sprayer at a spray volume of 5 liters per are. After the spraying, the test plants were grown in greenhouse for 20 days, and phytotoxicity and herbicidal activity were examined.

[8] = system: barnyardgrass; assay: Test Example 1, foliar treatment, herbicidal activity; format: in vivo, Echinochloa crus-galli; details: 3 weeks
How it was run: (§7)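 Crops and weeds sown in upland soil, greenhouse-grown 2 weeks, then sprayed on foliage with compound as emulsifiable concentrate in water plus spreading agent at 5 liters per are. Scored 3 weeks later from aerial fresh weight as percent of untreated plants, converted to a rating scale.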

[9] = system: velvetleaf; assay: Test Example 3, soil surface spraying, herbicidal activity; format: in vivo, Abutilon theophrasti; details: 20 days
Procedure: as §1, §3

[10] = system: wild oat; assay: Test Example 1, foliar treatment, herbicidal activity; format: in vivo, Avena fatua; details: 3 weeks
How it was run: as §7

[11] = system: morningglory; assay: Test Example 4, pre-emergence treatment, herbicidal activity; format: in vivo; details: 20 days
How it was run: as §5

[12] = system: velvetleaf; assay: Test Example 5, spraying over the top, herbicidal activity; format: in vivo, Abutilon theophrasti; details: sprayed over the top, 20 days
Procedure: as §1, §6

[13] = system: jimsonweed; assay: as above; format: in vivo, Datura stramonium; details: sprayed over the top, 20 days
Procedure: as §1, §6

[14] = system: prickly sida; assay: as above; format: in vivo, Sida spinosa; details: sprayed over the top, 20 days
Procedure: as §1, §6

[15] = system: velvetleaf; assay: Test Example 1, foliar treatment, herbicidal activity; format: in vivo, Abutilon theophrasti; details: 3 weeks
How it was run: as §7

[16] = system: Johnsongrass; assay: Test Example 5, spraying over the top, herbicidal activity; format: in vivo, Sorghum halepense; details: sprayed over the top, 20 days
Procedure: as §1, §6

[17] = system: soybean; assay: Test Example 5, spraying over the top, phytotoxicity to soybean; format: in vivo; details: sprayed over the top, 20 days
Procedure: as §1, §6

[18] = system: rice plant; assay: Test Example 6, paddy pot perfusion, phytotoxicity to rice plant; format: in vivo; details: 3 weeks, dry weight
Procedure: as §1, §4

[19] = system: hemp sesbania; assay: Test Example 5, spraying over the top, herbicidal activity; format: in vivo, Sesbania exaltator; details: sprayed over the top, 20 days
Procedure: as §1, §6
Note: ranges in brackets are in %.

Q: How did the “Herbicidal activity, Cocklebur” value ([1]; 0.63 g/are) turn out when `O=C1C2=C(CCCC2)C(=O)N1c1ccc(Cl)cc1F` [A, 2-fluoro-4-chlorophenyltetrahydrophthalimide, reference compound] was run?
A: 1 (41-60)

Q: What about the “Herbicidal activity, Cocklebur” value ([1]; 1.25 g/are) of the same compound?
A: 4 (1-10)

Q: What about the “Herbicidal activity, Common purslane” value ([2]; 0.63 g/are) of the same compound?
A: 2 (21-40)

Q: And the “Herbicidal activity, Common purslane” value ([2]; 1.25 g/are)?
A: 3 (11-20)

Q: What about the “Herbicidal activity, Sicklepod” value ([3]; 5 g/are) of the same compound?
A: 0 (61-100)

Q: What about the “Herbicidal activity, Sicklepod” value ([3]; 10 g/are) of the same compound?
A: 1 (41-60)

Q: And the “Herbicidal activity, Tall morningglory” value ([4]; 0.63 g/are)?
A: 2 (21-40)

Q: What about the “Herbicidal activity, Tall morningglory” value ([4]; 1.25 g/are) of the same compound?
A: 2 (21-40)

Q: What about the “Herbicidal activity, Barnyardgrass” value ([5]; 1.25 g/are) of the same compound?
A: 1 (41-60)

Q: And the “Herbicidal activity, Barnyardgrass” value ([5]; 2.5 g/are)?
A: 2 (21-40)

Q: And the “Phytotoxicity, Corn” value ([6]; 2.5 g/are)?
A: 0 (100)

Q: What about the “Phytotoxicity, Corn” value ([6]; 10 g/are) of the same compound?
A: 2 (80-89)

Q: And the “Herbicidal activity, Sicklepod” value ([7]; 10 g/are)?
A: 1 (41-60)

Q: What about the “Herbicidal activity, Sicklepod” value ([7]; 20 g/are) of the same compound?
A: 2 (21-40)

Q: What about the “Herbicidal activity, Barnyardgrass” value ([8]; 1.25 g/are) of the same compound?
A: 1 (41-60)

Q: What about the “Herbicidal activity, Barnyardgrass” value ([8]; 5 g/are) of the same compound?
A: 3 (11-20)

Q: What about the “Herbicidal activity, Velvetleaf” value ([9]; 5 g/are) of the same compound?
A: 3 (11-20)

Q: What about the “Herbicidal activity, Velvetleaf” value ([9]; 10 g/are) of the same compound?
A: 4 (1-10)

Q: And the “Herbicidal activity, Wild cat” value ([10]; 1.25 g/are)?
A: 0 (61-100)

Q: And the “Herbicidal activity, Wild cat” value ([10]; 5 g/are)?
A: 1 (41-60)

Q: And the “Herbicidal activity, Morningglory” value ([11]; 2.5 g/are)?
A: 1 (41-60)

Q: And the “Herbicidal activity, Morningglory” value ([11]; 10 g/are)?
A: 2 (21-40)

Q: And the “Herbicidal activity, Velvetleaf” value ([12]; 10 g/are)?
A: 5 (0)

Q: And the “Herbicidal activity, Velvetleaf” value ([12]; 20 g/are)?
A: 5 (0)

Q: And the “Herbicidal activity, Jimsonweed” value ([13]; 10 g/are)?
A: 4 (1-10)

Q: What about the “Herbicidal activity, Jimsonweed” value ([13]; 20 g/are) of the same compound?
A: 5 (0)

Q: What about the “Herbicidal activity, Prickly sida” value ([14]; 10 g/are) of the same compound?
A: 5 (0)

Q: And the “Herbicidal activity, Prickly sida” value ([14]; 20 g/are)?
A: 5 (0)

Q: What about the “Herbicidal activity, Velvetleaf” value ([15]; 1.25 g/are) of the same compound?
A: 5 (0)

Q: And the “Herbicidal activity, Velvetleaf” value ([15]; 5 g/are)?
A: 5 (0)

Q: And the “Herbicidal activity, Johnsongrass” value ([16]; 10 g/are)?
A: 4 (1-10)

Q: What about the “Herbicidal activity, Johnsongrass” value ([16]; 20 g/are) of the same compound?
A: 5 (0)

Q: And the “Phytotoxicity, Soybean” value ([17]; 10 g/are)?
A: 1 (90-99)

Q: And the “Phytotoxicity, Soybean” value ([17]; 20 g/are)?
A: 2 (80-89)

Q: What about the “Phytotoxicity, Rice plant” value ([18]; 1.25 g/are) of the same compound?
A: 0 (100)

Q: What about the “Phytotoxicity, Rice plant” value ([18]; 2.5 g/are) of the same compound?
A: 1 (90-99)

Q: And the “Herbicidal activity, Hemp sesbania” value ([19]; 10 g/are)?
A: 3 (11-20)

Q: What about the “Herbicidal activity, Hemp sesbania” value ([19]; 20 g/are) of the same compound?
A: 5 (0)

Q: Which results are given for `CC(C)Oc1cc(N2C(=O)C3=C(CCCC3)C2=O)c(Cl)cc1Cl` [B, 2,4-dichloro-5-isopropoxyphenyltetrahydrophthalimide, reference compound]?
A: Herbicidal activity, Cocklebur ([1]; 0.63 g/are): 2 (21-40); Herbicidal activity, Cocklebur ([1]; 1.25 g/are): 4 (1-10); Herbicidal activity, Common purslane ([2]; 0.63 g/are): 3 (11-20); Herbicidal activity, Common purslane ([2]; 1.25 g/are): 4 (1-10); Herbicidal activity, Sicklepod ([3]; 5 g/are): 0 (61-100); Herbicidal activity, Sicklepod ([3]; 10 g/are): 1 (41-60); Herbicidal activity, Tall morningglory ([4]; 0.63 g/are): 3 (11-20); Herbicidal activity, Tall morningglory ([4]; 1.25 g/are): 4 (1-10); Herbicidal activity, Barnyardgrass ([5]; 1.25 g/are): 1 (41-60); Herbicidal activity, Barnyardgrass ([5]; 2.5 g/are): 3 (11-20); Phytotoxicity, Corn ([6]; 5 g/are): 0 (100); Phytotoxicity, Corn ([6]; 20 g/are): 1 (90-99); Herbicidal activity, Sicklepod ([7]; 10 g/are): 0 (61-100); Herbicidal activity, Sicklepod ([7]; 20 g/are): 2 (21-40); Herbicidal activity, Barnyardgrass ([8]; 1.25 g/are): 0 (61-100); Herbicidal activity, Barnyardgrass ([8]; 5 g/are): 2 (21-40); Herbicidal activity, Velvetleaf ([9]; 5 g/are): 1 (41-60); Herbicidal activity, Velvetleaf ([9]; 10 g/are): 3 (11-20); Herbicidal activity, Wild cat ([10]; 1.25 g/are): 0 (61-100); Herbicidal activity, Wild cat ([10]; 5 g/are): 1 (41-60); Herbicidal activity, Morningglory ([11]; 5 g/are): 0 (61-100); Herbicidal activity, Morningglory ([11]; 20 g/are): 1 (41-60); Herbicidal activity, Velvetleaf ([12]; 10 g/are): 4 (1-10); Herbicidal activity, Velvetleaf ([12]; 20 g/are): 5 (0); Herbicidal activity, Jimsonweed ([13]; 10 g/are): 4 (1-10); Herbicidal activity, Jimsonweed ([13]; 20 g/are): 4 (1-10); Herbicidal activity, Prickly sida ([14]; 10 g/are): 3 (11-20); Herbicidal activity, Prickly sida ([14]; 20 g/are): 4 (1-10); Herbicidal activity, Velvetleaf ([15]; 1.25 g/are): 5 (0); Herbicidal activity, Velvetleaf ([15]; 5 g/are): 5 (0); Herbicidal activity, Johnsongrass ([16]; 10 g/are): 2 (21-40); Herbicidal activity, Johnsongrass ([16]; 20 g/are): 3 (11-20); Phytotoxicity, Soybean ([17]; 10 g/are): 0 (100); Phytotoxicity, Soybean ([17]; 20 g/are): 0 (100); Phytotoxicity, Rice plant ([18]; 1.25 g/are): 0 (100); Phytotoxicity, Rice plant ([18]; 2.5 g/are): 0 (100); Herbicidal activity, Hemp sesbania ([19]; 10 g/are): 1 (41-60); Herbicidal activity, Hemp sesbania ([19]; 20 g/are): 2 (21-40)
